# Measured values as given in patent publication US20240238423A9, “TETRAHYDROISOQUINOLINE HETEROBIFUNCTIONAL BCL-XL DEGRADERS” (Treeline Biosciences, Inc., priority 2022, published 2024).
# Read-outs that look alike come from different tables or passages of the source.
# Biological target: T1, Human BCL-XL protein (N-terminal HiBiT tagged BCL-XL in HT1080 cells) (Homo sapiens, UniProt Q07817)
# T1 construct: expressed in transfected cells; host or cells: HT-1080 (ATCC CCL-121), stably transduced with lentivirus pLV-UBC-N-HiBiT-BCL-XL-PGK-puro and selected with puromycin
# Experiment: HiBiT based degradation assay
# Type: cell-based
# Details: HT1080 cells expressing HiBiT-BCL-XL; for DC50: BCL-XL degradation
# Excerpt: Human BCL-XL protein coding open reading frame fused with N-terminal HiBiT coding sequence was synthesized from Integrated DNA Technologies (IDT). Next, N-HiBiT-BCL-XL sequence was cloned into pLV-UBC-PGK-Puro, a lentivirus plasmid purchased from Vectorbuilder, to generate pLV-UBC-N-HiBiT-BCL-XL-PGK-puro. Lentiviral particles were generated from Lenti-X™ 293T cells (Clontech) by co-transfection of pLV-UBC-N-HiBiT-BCL-XL-PGK-puro plasmids and lentiviral packaging plasmid mix (Cellecta). HT-1080 [HT1080](ATCC CCL-121) cells were infected with the lentivirus, and HT1080 cells stably integrated with the lentiviral vectors were established by incubation with 1 μg/mL puromycin (Thermofisher).
# HT1080 cells expressing N-terminal HiBiT tagged BCL-XL were dispensed into a 384-well plate pre-spotted with compounds at varying concentrations. Three thousand cells were seeded into each well in 40 μL of RPMI 1640 media. […] After incubation, luminescence was read on a PHERAstar FSX Plate Reader (BMG). BCL-XL degradation at each indicated concentration was normalized with the DMSO control. The BCL-XL degradation curves were plotted using a four-parameter logistic model. For compounds displaying hook effects, the curve fitting was performed using the bottom point of the hook curves (i.e., the point of Ymin) as the bottom plateau to calculate EC50.
# [1] = BCL-XL degradation normalized with DMSO control, 24 h
# T1 sequence (Q07817 whole entry): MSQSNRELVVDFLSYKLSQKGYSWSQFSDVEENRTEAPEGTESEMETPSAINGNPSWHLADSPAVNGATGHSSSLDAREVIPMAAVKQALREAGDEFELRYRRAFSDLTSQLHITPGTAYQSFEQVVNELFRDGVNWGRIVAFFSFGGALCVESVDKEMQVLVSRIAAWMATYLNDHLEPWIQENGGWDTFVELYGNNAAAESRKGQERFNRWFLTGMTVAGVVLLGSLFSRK
Ymin (24 h) [1],"DC50 (24 h, read-out: EC50 (24 h))","Ymin (6 h) (BCL-XL degradation normalized with DMSO control, 6 h)","DC50 (6 h, read-out: EC50 (6 h))",SMILES
B (50% ≤ Ymin < 70%),100 to 1000 nM,–,–,"Cc1c(OCCCN2CCN(CCCOc3ccc4c(C5CCC(=O)NC5=O)nn(C)c4c3)C(C(F)(F)F)C2)cccc1-c1ccc(N2CCc3cccc(C(=O)Nc4nc5ccccc5s4)c3C2)nc1C(=O)O (stereo not drawn) [Compound 165, 6-(8-(benzo[d]thiazol-2-ylcarbamoyl)-3,4-dihydroisoquinolin-2(1H)-yl)-3-(3-(3-(4-(3-((3-(2,6-dioxopiperidin-3-yl)-1-methyl-1H-indazol-6-yl)oxy)propyl)-3-(trifluoromethyl)piperazin-1-yl)propoxy)-2-methylphenyl)picolinic acid]"
A (Ymin < 50%),< 100 nM,–,–,"Cc1c(O[C@H]2CC[C@H](CCCN3CCC(Oc4ccc5c(C6CCC(=O)NC6=O)nn(C)c5c4)CC3)CC2)cccc1-c1ccc(N2CCc3cccc(C(=O)Nc4nc5ccccc5s4)c3C2)nc1C(=O)O (stereo partly drawn) [Compound 337a, 6-(8-(benzo[d]thiazol-2-ylcarbamoyl)-3,4-dihydroisoquinolin-2(1H)-yl)-3-(3-(((1s,4r)-4-(3-(4-((3-(2,6-dioxopiperidin-3-yl)-1-methyl-1H-indazol-6-yl)oxy)piperidin-1-yl)propyl)cyclohexyl)oxy)-2-methylphenyl)picolinic acid]"
A (Ymin < 50%),< 100 nM,–,–,"Cc1c(O[C@H]2CC[C@H](CCCCN3CCC[C@H](c4ccc5c(C6CCC(=O)NC6=O)nn(C)c5c4)C3)CC2)cccc1-c1ccc(N2CCc3cccc(C(=O)Nc4nc5ccccc5s4)c3C2)nc1C(=O)O (single isomer, unassigned) [Compound 352a]"
B (50% ≤ Ymin < 70%),< 100 nM,C (Ymin ≥ 70%),100 to 1000 nM,"Cc1c(Oc2ccccc2CCC(=O)Nc2cccc3c(C4CCC(=O)NC4=O)nn(C)c23)cccc1-c1ccc(N2CCc3cccc(C(=O)Nc4nc5ccccc5s4)c3C2)nc1C(=O)O (stereo not drawn) [Compound 243, 6-(8-(benzo[d]thiazol-2-ylcarbamoyl)-3,4-dihydroisoquinolin-2(1H)-yl)-3-(3-(2-(3-((3-(2,6-dioxopiperidin-3-yl)-1-methyl-1H-indazol-7-yl)amino)-3-oxopropyl)phenoxy)-2-methylphenyl)picolinic acid]"
A (Ymin < 50%),< 100 nM,–,–,"Cc1cc(OCCC[C@H]2CCN(CC(=O)Nc3ccc4c(C5CCC(=O)NC5=O)nn(C)c4c3)[C@H](C)C2)ccc1-c1ccc(N2CCc3cccc(C(=O)Nc4nc5ccccc5s4)c3C2)nc1C(=O)O (stereo partly drawn) [Compound 344c, 6-[8-(1,3-benzothiazol-2-ylcarbamoyl)-3,4-dihydro-1H-isoquinolin-2-yl]-3-[4-[3-[(2R,4S)-1-[2-[[3-(2,6-dioxo-3-piperidyl)-1-methyl-indazol-6-yl]amino]-2-oxo-ethyl]-2-methyl-4-piperidyl]propoxy]-2-methyl-phenyl]pyridine-2-carboxylic acid]"
A (Ymin < 50%),< 100 nM,–,–,"Cc1c(O[C@H]2CC[C@H](CCCCN3CCN(c4cccc5c(C6CCC(=O)NC6=O)nn(C)c45)C[C@H]3C)CC2)cccc1-c1ccc(N2CCc3cccc(C(=O)Nc4nc5ccccc5s4)c3C2)nc1C(=O)O (stereo partly drawn) [Compound 345a, 6-(8-(benzo[d]thiazol-2-ylcarbamoyl)-3,4-dihydroisoquinolin-2(1H)-yl)-3-(3-(((1s,4r)-4-(4-((2R)-4-(3-(2,6-dioxopiperidin-3-yl)-1-methyl-1H-indazol-7-yl)-2-methylpiperazin-1-yl)butyl)cyclohexyl)oxy)-2-methylphenyl)picolinic acid]"

# Further lines, the compound ahead of its results:
SMILES,Ymin (24 h) [1],"DC50 (24 h, read-out: EC50 (24 h))","Ymin (6 h) (BCL-XL degradation normalized with DMSO control, 6 h)","DC50 (6 h, read-out: EC50 (6 h))"
"Cc1c(OCCCC2(C)CCN(CC(=O)Nc3ccc4c(C5CCC(=O)NC5=O)nn(C)c4c3)CC2)cccc1-c1ccc(N2CCc3cccc(C(=O)Nc4nc5ccccc5s4)c3C2)nc1C(=O)O (stereo not drawn) [Compound 267, 6-[8-(1,3-benzothiazol-2-ylcarbamoyl)-3,4-dihydro-1H-isoquinolin-2-yl]-3-[3-[3-[1-[2-[[3-(2,6-dioxo-3-piperidyl)-1-methyl-indazol-6-yl]amino]-2-oxo-ethyl]-4-methyl-4-piperidyl]propoxy]-2-methyl-phenyl]pyridine-2-carboxylic acid]",A (Ymin < 50%),< 100 nM,–,–
"Cc1c(O[C@H]2CC[C@H](CCCC(=O)N3CCN(c4ccc5c(C6CCC(=O)NC6=O)nn(C)c5c4)CC3)CC2)cccc1-c1ccc(N2CCc3cccc(C(=O)Nc4nc5ccccc5s4)c3C2)nc1C(=O)O (stereo partly drawn) [Compound 227a, 6-(8-(benzo[d]thiazol-2-ylcarbamoyl)-3,4-dihydroisoquinolin-2(1H)-yl)-3-(3-(((1s,4r)-4-(4-(4-(3-(2,6-dioxopiperidin-3-yl)-1-methyl-1H-indazol-6-yl)piperazin-1-yl)-4-oxobutyl)cyclohexyl)oxy)-2-methylphenyl)picolinic acid]",A (Ymin < 50%),< 100 nM,–,–
"Cc1c(OCCC[C@H]2CCN(CC(=O)Nc3ccc4c(C5CCC(=O)NC5=O)nn(C)c4c3)[C@H](C)C2)cccc1-c1ccc(N2CCc3cccc(C(=O)Nc4nc5ccccc5s4)c3C2)nc1C(=O)O (stereo partly drawn) [Compound 343b, 6-[8-(1,3-benzothiazol-2-ylcarbamoyl)-3,4-dihydro-1H-isoquinolin-2-yl]-3-[3-[3-[(2R,4S)-1-[2-[[3-(2,6-dioxo-3-piperidyl)-1-methyl-indazol-6-yl]amino]-2-oxo-ethyl]-2-methyl-4-piperidyl]propoxy]-2-methyl-phenyl]pyridine-2-carboxylic acid]",A (Ymin < 50%),< 100 nM,–,–
"Cc1c(O[C@H]2CC[C@H](CCCN3CCN(c4ccc5c(N6CCC(=O)NC6=O)nn(C)c5c4)CC3)CC2)cccc1-c1ccc(N2CCc3cccc(C(=O)Nc4nc5ccccc5s4)c3C2)nc1C(=O)O [Compound 316a, 6-(8-(benzo[d]thiazol-2-ylcarbamoyl)-3,4-dihydroisoquinolin-2(1H)-yl)-3-(3-(((1s,4r)-4-(3-(4-(3-(2,4-dioxotetrahydropyrimidin-1(2H)-yl)-1-methyl-1H-indazol-6-yl)piperazin-1-yl)propyl)cyclohexyl)oxy)-2-methylphenyl)picolinic acid]",A (Ymin < 50%),< 100 nM,–,–
"Cc1c(OCCCC[C@@H]2CCCN(CC(=O)Nc3cccc4c(C5CCC(=O)NC5=O)nn(C)c34)C2)cccc1-c1ccc(N2CCc3cccc(C(=O)Nc4nc5ccccc5s4)c3C2)nc1C(=O)O (stereo partly drawn) [Compound 186a, 6-[8-(1,3-benzothiazol-2-ylcarbamoyl)-3,4-dihydro-1H-isoquinolin-2-yl]-3-[3-[4-[(3R)-1-[2-[[3-(2,6-dioxo-3-piperidyl)-1-methyl-indazol-7-yl]amino]-2-oxo-ethyl]-3-piperidyl]butoxy]-2-methyl-phenyl]pyridine-2-carboxylic acid]",B (50% ≤ Ymin < 70%),< 100 nM,–,–
"Cc1c(OCCCC2CCN(CC3CCN(c4cccc5c(C6CCC(=O)NC6=O)nn(C)c45)CC3)CC2)cccc1-c1ccc(N2CCc3cccc(C(=O)Nc4nc5ccccc5s4)c3C2)nc1C(=O)O (stereo not drawn) [Compound 279, 6-[8-(1,3-benzothiazol-2-ylcarbamoyl)-3,4-dihydro-1H-isoquinolin-2-yl]-3-[3-[3-[1-[[1-[3-(2,6-dioxo-3-piperidyl)-1-methyl-indazol-7-yl]-4-piperidyl]methyl]-4-piperidyl]propoxy]-2-methyl-phenyl]pyridine-2-carboxylic acid]",A (Ymin < 50%),< 100 nM,–,–
"Cc1c(OCC[C@H]2CCN(CC(=O)Nc3cccc4c(C5CCC(=O)NC5=O)nn(C)c34)C2)cccc1-c1ccc(N2CCc3cccc(C(=O)Nc4nc5ccccc5s4)c3C2)nc1C(=O)O (stereo partly drawn) [Compound 231b, 6-[8-(1,3-benzothiazol-2-ylcarbamoyl)-3,4-dihydro-1H-isoquinolin-2-yl]-3-[3-[2-[(3R)-1-[2-[[3-(2,6-dioxo-3-piperidyl)-1-methyl-indazol-7-yl]amino]-2-oxo-ethyl]pyrrolidin-3-yl]ethoxy]-2-methyl-phenyl]pyridine-2-carboxylic acid]",B (50% ≤ Ymin < 70%),< 100 nM,–,–
"Cc1c(OCCCN2CCN(CC(=O)Nc3cccc4c(C5CCC(=O)NC5=O)nn(C)c34)C[C@@H]2C(F)(F)F)cccc1-c1ccc(N2CCc3cccc(C(=O)Nc4nc5ccccc5s4)c3C2)nc1C(=O)O (stereo partly drawn) [Compound 246a, 6-(8-(benzo[d]thiazol-2-ylcarbamoyl)-3,4-dihydroisoquinolin-2(1H)-yl)-3-(3-(3-((2R)-4-(2-((3-(2,6-dioxopiperidin-3-yl)-1-methyl-1H-indazol-7-yl)amino)-2-oxoethyl)-2-(trifluoromethyl)piperazin-1-yl)propoxy)-2-methylphenyl)picolinic acid]",B (50% ≤ Ymin < 70%),< 100 nM,–,–
